From US10420341B2, “Herbicidal phenylpyrimidines” (BASF SE, priority 2015, dated 2019)

How the values were obtained:
[1] = tested on: APESV; assay: greenhouse pre-emergence herbicidal test; type: in vivo, Apera spica-venti; conditions: pre-emergence method, scale from 0 to 100
Method in brief: (§1)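 After each species was sown separately, test compounds in water were applied at once with finely distributing nozzles. Containers were then irrigated and covered until rooting, held at species-dependent temperatures (10-25° C. or 20-35° C.), and assessed over 2 to 4 weeks on a 0-100 injury scale.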

[2] = tested on: ABUTH; assay: greenhouse post-emergence herbicidal test; type: in vivo, Abutilon theophrasti; conditions: post-emergence method, application rate 1000 g/ha, scale from 0 to 100
Method in brief: (§2)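 Scoring 0 (no damage) to 100 (no emergence or total destruction of aerial parts), taken over a 2 to 4 week period after post-emergence treatment at 3 to 15 cm plant height. Compounds applied as aqueous suspension or emulsion; greenhouse temperature 10-25° C. or 20-35° C. depending on species.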

[3] = tested on: AMARE; assay: greenhouse post-emergence herbicidal test; type: in vivo, Amaranthus retroflexus; conditions: post-emergence method, application rate 1000 g/ha, scale from 0 to 100
Method in brief: as §2

[4] = tested on: SETFA; assay: greenhouse pre-emergence herbicidal test; type: in vivo, Setaria faberi; conditions: pre-emergence method, application rate 1000 g/ha, scale from 0 to 100
Text: (§3) The seeds of the test plants were sown separately for each species. For the pre-emergence treatment, the active ingredients, which had been suspended or emulsified in water, were applied directly after sowing by means of finely distributing nozzles. The containers were irrigated gently to promote germination and growth and subsequently covered with transparent plastic hoods until the plants had rooted. This cover caused uniform germination of the test plants, unless this had been impaired by the active ingredients. Depending on the species, the plants were kept at 10-25° C. or 20-35° C., respectively. The test period extended over 2 to 4 weeks. During this time, the plants were tended, and their response to the individual treatments was evaluated. Evaluation was carried out using a scale from 0 to 100. 100 means no emergence of the plants, or complete destruction of at least the aerial moieties, and 0 means no damage, or normal course of growth. […] The plants used in the greenhouse experiments were of the following species: [table]

[5] = tested on: ECHCG; assay: greenhouse post-emergence herbicidal test; type: in vivo, Echinocloa crus-galli; conditions: post-emergence method, scale from 0 to 100
Method in brief: as §2

[6] = tested on: AMARE; assay: greenhouse pre-emergence herbicidal test; type: in vivo, Amaranthus retroflexus; conditions: pre-emergence method, application rate 500 g/ha, scale from 0 to 100
Text: as §3

[7] = tested on: SETVI; assay: greenhouse pre-emergence herbicidal test; type: in vivo, Setaria viridis; conditions: pre-emergence method, application rate 1000 g/ha, scale from 0 to 100
Text: as §3

[8] = tested on: LOLMU; assay: greenhouse post-emergence herbicidal test; type: in vivo, Lolium multiflorum; conditions: post-emergence method, application rate 500 g/ha, scale from 0 to 100
Text: (§4) The seeds of the test plants were sown separately for each species. For the post-emergence treatment, the test plants were first grown to a height of 3 to 15 cm, depending on the plant habit, and only then treated with the active ingredients which had been suspended or emulsified in water. For this purpose, the test plants were either sown directly and grown in the same containers, or they were first grown separately as seedlings and transplanted into the test containers a few days prior to treatment. Depending on the species, the plants were kept at 10-25° C. or 20-35° C., respectively. The test period extended over 2 to 4 weeks. During this time, the plants were tended, and their response to the individual treatments was evaluated. Evaluation was carried out using a scale from 0 to 100. 100 means no emergence of the plants, or complete destruction of at least the aerial moieties, and 0 means no damage, or normal course of growth. […] The plants used in the greenhouse experiments were of the following species: [table]

[9] = tested on: POLCO; assay: greenhouse post-emergence herbicidal test; type: in vivo, Polygonum convolvulus; conditions: post-emergence method, application rate 500 g/ha, scale from 0 to 100
Method in brief: as §2

[10] = tested on: SETVI; assay: greenhouse post-emergence herbicidal test; type: in vivo, Setaria viridis; conditions: post-emergence method, application rate 500 g/ha, scale from 0 to 100
Text: as §4

[11] = tested on: ECHCG; assay: greenhouse pre-emergence herbicidal test; type: in vivo, Echinocloa crus-galli; conditions: pre-emergence method, application rate 500 g/ha, scale from 0 to 100
Method in brief: as §1

[12] = tested on: AVEFA; assay: greenhouse post-emergence herbicidal test; type: in vivo, Avena fatua; conditions: post-emergence method, application rate 500 g/ha, scale from 0 to 100
Method in brief: as §2

[13] = tested on: APESV; assay: greenhouse post-emergence herbicidal test; type: in vivo, Apera spica-venti; conditions: post-emergence method, application rate 500 g/ha, scale from 0 to 100
Text: as §4

[14] = tested on: AVEFA; assay: greenhouse pre-emergence herbicidal test; type: in vivo, Avena fatua; conditions: pre-emergence method, application rate 500 g/ha, scale from 0 to 100
Text: as §3

## CCc1ncc(-c2cc(C)ccc2C)c(C(=O)O)n1 [example 9]
[1]; application rate 1000 g/ha
  herbicidal activity against APESV: very good (a very good herbicidal activity is given at values of at least 85)
[2]
  herbicidal activity against ABUTH: very good (a very good herbicidal activity is given at values of at least 85)
[3]
  herbicidal activity against AMARE: good (A good herbicidal activity is given at values of at least 70)
[4]
  herbicidal activity against SETFA: very good (a very good herbicidal activity is given at values of at least 85)

## O=C(O)c1nc(C2CCC2)ncc1-c1ccccc1Cl [example 2, 5-(2-Chlorophenyl)-2-cyclobutyl-pyrimidine-4-carboxylate]
[5]; application rate 1000 g/ha
  herbicidal activity against ECHCG: good (A good herbicidal activity is given at values of at least 70)
[2]
  herbicidal activity against ABUTH: good (A good herbicidal activity is given at values of at least 70)
[4]
  herbicidal activity against SETFA: good (A good herbicidal activity is given at values of at least 70)

## CN(C)C(=O)c1nc(C2CC2)ncc1-c1ccccc1Cl [example 285]
[1]; application rate 500 g/ha
  herbicidal activity against APESV: good (A good herbicidal activity is given at values of at least 70)
[6]
  herbicidal activity against AMARE: good (A good herbicidal activity is given at values of at least 70)

## COc1ccccc1-c1cnc(OC(C)C)nc1C(=O)O [example 74]
[7]
  herbicidal activity against SETVI: good (A good herbicidal activity is given at values of at least 70)

## CN(C)S(=O)(=O)NC(=O)c1nc(C2CC2)ncc1-c1ccccc1Cl [example 287]
[8]
  herbicidal activity against LOLMU: very good (a very good herbicidal activity is given at values of at least 85)
[5]; application rate 500 g/ha
  herbicidal activity against ECHCG: very good (a very good herbicidal activity is given at values of at least 85)
[1]; application rate 500 g/ha
  herbicidal activity against APESV: very good (a very good herbicidal activity is given at values of at least 85)
[9]
  herbicidal activity against POLCO: very good (a very good herbicidal activity is given at values of at least 85)
[6]
  herbicidal activity against AMARE: very good (a very good herbicidal activity is given at values of at least 85)

## NC(=O)c1nc(C2CC2)ncc1-c1ccccc1Cl [example 288]
[1]; application rate 500 g/ha
  herbicidal activity against APESV: very good (a very good herbicidal activity is given at values of at least 85)
[9]
  herbicidal activity against POLCO: very good (a very good herbicidal activity is given at values of at least 85)
[6]
  herbicidal activity against AMARE: very good (a very good herbicidal activity is given at values of at least 85)
[10]
  herbicidal activity against SETVI: very good (a very good herbicidal activity is given at values of at least 85)

## COC(=O)c1nc(C2CCC2)ncc1-c1ccccc1C [example 264]
[1]; application rate 1000 g/ha
  herbicidal activity against APESV: good (A good herbicidal activity is given at values of at least 70)
[2]
  herbicidal activity against ABUTH: very good (a very good herbicidal activity is given at values of at least 85)
[3]
  herbicidal activity against AMARE: very good (a very good herbicidal activity is given at values of at least 85)
[4]
  herbicidal activity against SETFA: very good (a very good herbicidal activity is given at values of at least 85)

## COC(=O)c1nc(SC)ncc1-c1cc(C)ccc1Cl [example 117]
[6]
  herbicidal activity against AMARE: good (A good herbicidal activity is given at values of at least 70)
[11]
  herbicidal activity against ECHCG: good (A good herbicidal activity is given at values of at least 70)

## C#CCOC(=O)c1nc(C2CC2)ncc1-c1ccccc1Cl [example 256]
[12]
  herbicidal activity against AVEFA: very good (a very good herbicidal activity is given at values of at least 85)
[13]
  herbicidal activity against APESV: very good (a very good herbicidal activity is given at values of at least 85)
[5]; application rate 500 g/ha
  herbicidal activity against ECHCG: very good (a very good herbicidal activity is given at values of at least 85)
[14]
  herbicidal activity against AVEFA: very good (a very good herbicidal activity is given at values of at least 85)
[1]; application rate 500 g/ha
  herbicidal activity against APESV: very good (a very good herbicidal activity is given at values of at least 85)
[11]
  herbicidal activity against ECHCG: very good (a very good herbicidal activity is given at values of at least 85)
